Data taken from US20240041830A1, “CIRCULATING BIOMARKERS OF RESPONSE TO PD-1/PD-L1 BLOCKADE AND GSK-3 INHIBITION” (Brown University, priority 2022, published 2024).

System: tumor biopsies (colorectal cancer, pancreatic cancer)
Assay: GeoMx Digital Spatial Profiling of patient tumor biopsies
Assay type: in vivo, human
Excerpt: Digital spatial profiling. An Agilent Technologies hybridization oven was used for baking tissue onto slides (Agilent, Santa Clara, CA, USA). A NanoString GeoMx® Digital Spatial Profiler (DSP) instrument (NanoString, Seattle, WA, USA) was used to scan slides, identify regions of interest (ROIs), and collect photocleavable barcodes according to manufacturer instructions. A custom panel was designed to include the following proteins: Ms IgG1, Ms IgG2a, Rb IgG, GAPDH, Histone H3, S6, Beta-2-microglobulin, CD31, CD45, Ki-67, ARG1, CD11 b, CD11 c, CD14, CD163, CD39, CD40, CD68, HLA-DR, GZMB, CD20, CD3, CD34, CD4, CD56, CD66b, CD8, Foxp3, Fibronectin, 4-1BB, B7-H3, CTLA4, GITR, IDO1, LAG3, OX40L, STING, Tim-3, VISTA, Bcl-2, ER-α, EpCAM, Her2, MART1, NY-ESO-1, PR, PTEN, PanCk, SMA, CD127, CD25, CD27, CD44, CD45RO, CD80, ICOS, PD-1, PD-L1, and PD-L2. An Eppendorf MasterCycler Gradient Thermal Cycler was used to generate the Illumina sequencing libraries from the photocleaved tags. (Eppendorf, Hamburg, Germany). An Agilent Fragment Analyzer (RRID: SCR_019417) was used for library size distribution analysis with a high-sensitivity NGS Fragment Kit (Cat #DNF-474-0500, Agilent, Santa Clara, CA, USA). qPCR for quantification was run using an Illumina-compatible KAPA Library Quantification Kits (ROX Low) (cat #KK4873) on an Applied Biosystems ViiA 7 Real-Time qPCR/PCR Thermal Cycler System (Applied Biosystems, San Francisco, CA, USA) and was analyzed using QuantStudio software (RRID: SCR_018712). Sequencing was performed using a NextSeq 500/550 High Output Kit v2.5 (75 Cycles) kit (cat #20024906) on an Illumina Sequencing NextSeq 550 System (RRID: SCR_016381, Illumina, San Diego, CA, USA). The initial annotated dataset went through quality control (QC) to check if housekeeper genes and background (isotype) control molecules were themselves correlated with the predictors of interest. Every ROI was tested for raw sequencing reads (segments with <1000 raw reads were removed), % sequencing saturation, defined as (1-deduplicated reads/aligned reads)%, segments below ˜50% were not analyzed), and nuclei count per segment, for which >100 nuclei per segment is generally recommended. Both immunoglobulins (lgGs) and housekeeper genes were highly correlated with one another. Signal to noise (SNR) ratio was calculated using background probes and all probes were detected above the background in at least one ROI. data were normalized based on background IgG expression and all normalization factors were well distributed. Data analysis and visualization were generated using R (RRID: SCR_001905; R Development Core Team, 2020).
PanCK+ expression of immunosuppressive CD39 negatively correlated with time-on-treatment (Tx time) while CD45+ expression of monocyte/macrophage marker CD163 positively correlated with Tx time. The inventors used GeoMx Digital Spatial Profiling (DSP) technology to profile the expression of fifty-nine proteins in tumor biopsies (N=12) from patients treated with elraglusib (N=7). A total of 42% (N=5) of the tumor biopsies analyzed were collected near or before treatment start (pre-treatment) and 58% (N=7) of the biopsies analyzed were collected from post-treatment (average time-on-treatment (Tx time) at post-treatment biopsy: 270 days) (FIG. 7A). Primary tumor types included colorectal cancer (N=4, 33%) and pancreatic cancer (N=8, 67%), while metastatic biopsy tissue sites included lung (N=2, 17%), liver (N=7, 58%), rectum (N=2, 17%), and pleura (N=1, 8%). the inventors analyzed five paired tumor biopsies ([…], 83%), and two unpaired biopsies (N=2 slides total, 17%). Half (N=6, 50%) of the tumor sections were needle biopsies and half (N=6, 50%) were tissue biopsies. All patients included in this analysis were considered responders based on the definition used in the Phase 1 trial that treatment response is equal to disease control greater than 16 weeks. […]

[1] = CD45+ regions, post- vs pre-treatment biopsies
[2] = tumor-infiltrating CD45+ segments, post- vs pre-treatment

Cn1cc(C2=C(c3coc4ccc(F)cc34)C(=O)NC2=O)c2cc3c(cc21)OCO3 [elraglusib]
downregulation: PD-L1 expression (PanCK+ segments, post- vs pre-treatment biopsies)
reduced: ARG1 protein expression [2] | B2M protein expression [2] | CD11c protein expression [2] | CD34 protein expression [2] | CD44 protein expression [2] | CD45R0 protein expression [2] | CD56 protein expression [2] | CD66b protein expression [2] | CD68 protein expression [2] | CD80 protein expression [2] | GITR protein expression [2] | HLA-DR protein expression [2] | IDO1 protein expression [2] | Ki-67 protein expression [2] | PD-1 protein expression [2] | PD-L1 protein expression [2] | PD-L2 protein expression [2] | PTEN protein expression [2] | VISTA protein expression [2]
decreased: CD11 b protein expression [1] | CD11c protein expression [1] | CD40 protein expression [1] | CD66b protein expression [1] | CD68 protein expression [1] | CD80 protein expression [1] | IDO1 protein expression [1] | LAG3 protein expression [1] | PD-1 protein expression [1] | PD-L1 protein expression [1] | PD-L2 protein expression [1] | VISTA protein expression [1]
elevated: B7-H3 protein expression [2] | CD127 protein expression [2] | CTLA4 protein expression [2] | OX4OL protein expression [2]
